Results as given in the supplement of paper PMC7021759.
± gives the standard deviation of the averaged measurements.

Test system: SK-N-MM (SKNMM-MYCN, doxycycline-inducible MYCN)
Experiment: area under dose-response curve (CellTiter-Glo viability normalised to plate controls) (AUC (arbitrary units)); higher = more loss of viability; extreme values may be limits of the assay
Procedure, shortened: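 Compounds were pin-transferred as 10-point 1:3 dilution series (890-fold stock dilution) onto SK-N-MM cells with doxycycline-inducible MYCN, plated at 1250 cells/100 μL in 96-well plates and switched about 24 h after plating to medium with or without doxycycline two days before dosing. Dosing was repeated on day 4, and CellTiter-Glo luminescence was read 3 or 8 days after drugging. Area under the dose-response curve came from log2 signals normalised to the positive and negative controls on each plate.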

[1] = MYCN induction (doxycycline): +doxycycline (MYCN induced), time after drugging: 3 days
[2] = MYCN induction (doxycycline): +doxycycline (MYCN induced), time after drugging: 8 days
[3] = MYCN induction (doxycycline): no doxycycline (MYCN not induced), time after drugging: 3 days
[4] = MYCN induction (doxycycline): no doxycycline (MYCN not induced), time after drugging: 8 days

SMILES | area under dose-response curve [1] | area under dose-response curve [2] | area under dose-response curve [3] | area under dose-response curve [4]
CC1(C)CCC(c2ccc(Cl)cc2)=C(CN2CCN(c3ccc(C(=O)NS(=O)(=O)c4ccc(N[C@H](CCN5CCOCC5)CSc5ccccc5)c(S(=O)(=O)C(F)(F)F)c4)cc3)CC2)C1 [NAVITOCLAX] | 8.7 | 3.92 | 0 | 0.362
CCN(CCCOc1ccc2c(Nc3cc(CC(=O)Nc4cccc(F)c4)[nH]n3)ncnc2c1)CCOP(=O)(O)O [BARASERTIB] | 19.5 | 92.2 | – | 33.5
COc1cc(F)ccc1-c1ncnc(Nc2cccc(CS(C)(=N)=O)c2)n1 (stereo unspecified) | 50.3 | 123 | 34 | 131
Cc1nc(-c2cn3c(n2)-c2ccc(-c4cnn(C(C)(C)C(N)=O)c4)cc2OCC3)n(C(C)C)n1 [TASELISIB] | 23.1 | 34.9 | 34.6 | 39
Nc1ncn([C@H]2C[C@H](O)[C@@H](CO)O2)c(=O)n1 [DECITABINE] | 4.2 | 169 | 0.521 | 67.4
COc1ncc(-c2ccc3nccc(-c4ccnnc4)c3c2)cc1NS(=O)(=O)c1ccc(F)cc1F [OMIPALISIB] | 105 | 183 | 86.2 | 160
CN[C@@H]1C[C@H]2O[C@@](C)([C@@H]1OC)n1c3ccccc3c3c4c(c5c6ccccc6n2c5c31)C(=O)N[C@H]4O [7-HYDROXYSTAUROSPORINE] | 204 | 290 | 144 | 249
COc1ccc(-c2cc(=O)c3c(O)cc(O)c(-c4cc(-c5cc(=O)c6c(O)cc(O)cc6o5)ccc4OC)c3o2)cc1 [ISOGINKGETIN] | – | 61.2 | 15.4 | 24.2
C#Cc1cccc(Nc2ncnc3cc(OCCOC)c(OCCOC)cc23)c1 [ERLOTINIB] | – | 1.15 | 18.8 | –
Nc1nc(Cl)nc2c1ncn2[C@H]1C[C@H](O)[C@@H](CO)O1 [CLADRIBINE] | 51.7 | 225 | 35.7 | 110
C[C@H]1[C@@H](O)O[C@@H]2O[C@@]3(C)CC[C@H]4[C@H](C)CC[C@@H]1[C@@]24OO3 [DIHYDROARTEMISININ] | 62.1 | 116 | 37 | 73.1
O=c1cc(-c2cccc3c2Sc2ccccc2S3)oc(N2CCOCC2)c1 | – | – | 16.3 | –
O=C(/C=C\n1cnc(-c2cc(C(F)(F)F)cc(C(F)(F)F)c2)n1)NNc1cnccn1 [SELINEXOR] | 98.9 | 189 | 43.6 | 128
COc1cccc2c1C(=O)c1c(O)c3c(c(O)c1C2=O)C[C@@](O)(C(=O)CO)C[C@@H]3O[C@H]1C[C@H](N)[C@H](O)[C@H](C)O1 [DOXORUBICIN] | 135 | 295 | 104 | 224
N#CC[C@H](C1CCCC1)n1cc(-c2ncnc3[nH]ccc23)cn1 [RUXOLITINIB] | 27.6 | 121 | 22.3 | 100
Nc1ccn([C@@H]2O[C@H](CO)[C@@H](O)C2(F)F)c(=O)n1 [GEMCITABINE] | 72.2 | 299 | 43.4 | 139
CCc1c2c(nc3ccc(O)cc13)-c1cc3c(c(=O)n1C2)COC(=O)[C@]3(O)CC [SN-38] | 152 ± 8.4 | 295 ± 33 | 67.4 ± 16 | 181 ± 37
Nc1cc(C(F)(F)F)c(-c2cc(N3CCOCC3)nc(N3CCOCC3)n2)cn1 [BUPARLISIB] | 91.8 | 150 | 65.7 | 86.9
Cc1sc2c(c1C)C(c1ccc(Cl)cc1)=N[C@@H](CC(N)=O)c1nnc(C)n1-2 [CPI-203] | 2.86 | 38.6 | 8.36 | 30.9

SMILES | area under dose-response curve [1] | area under dose-response curve [2] | area under dose-response curve [3] | area under dose-response curve [4]
CC[C@]1(O)C[C@@H]2CN(CCc3c([nH]c4ccccc34)[C@@](C(=O)OC)(c3cc4c(cc3OC)N(C)[C@H]3[C@@](O)(C(=O)OC)[C@H](OC(C)=O)[C@]5(CC)C=CCN6CC[C@]43[C@@H]65)C2)C1 [VINBLASTINE] | 190 | 284 | 98.1 | 177
Cc1c(CN2CCC(Nc3ncnc4sc(CC(F)(F)F)cc34)CC2)ccc2c1cc(C#N)n2Cc1cn[nH]c1 [MI-503] | 131 | 177 | – | 169
C/C(=C\c1csc(C)n1)[C@@H]1C[C@@H]2O[C@]2(C)CCC[C@H](C)[C@H](O)[C@@H](C)C(=O)C(C)(C)[C@@H](O)CC(=O)N1 [IXABEPILONE] | 121 | 199 | 89.9 | 138
NC1(c2ccc(-c3nc4ccn5c(=O)[nH]nc5c4cc3-c3ccccc3)cc2)CCC1 [MK-2206] | – | 0 | 81.6 | 149
CC(=O)O[C@@]12CO[C@@H]1C[C@H](O)[C@@]1(C)C(=O)[C@H](O)C3=C(C)[C@@H](OC(=O)[C@H](O)[C@@H](NC(=O)OC(C)(C)C)c4ccccc4)C[C@@](O)([C@@H](OC(=O)c4ccccc4)[C@H]21)C3(C)C [DOCETAXEL] | 142 | 292 | 107 | 183
Cc1ccc(NC(=O)c2ccc(CN3CCN(C)CC3)cc2)cc1Nc1nc(-c2cccnc2)cs1 [MASITINIB] | 0 | 0 | 0 | 2.84
COc1cc2/c(=N/c3ccc(Br)cc3F)nc[nH]c2cc1OCC1CCN(C)CC1 [VANDETANIB] | 3.18 | 0 | 2.99 | 125
CCOc1ccn(-c2ccc(F)cc2)c(=O)c1C(=O)Nc1ccc(Oc2ccnc(N)c2Cl)c(F)c1 | 0 | 0 | 4.76 | 74.3
CCc1nc(N)nc(N)c1-c1ccc(Cl)cc1 [PYRIMETHAMINE] | 13.5 | 65.7 | 5.97 | 22.1
Oc1ccc(C2=Cc3ccc(O)cc3OC2)cc1 [IDRONOXIL] | 38.3 | 77.4 | 17.5 | 46.3
CC[C@@H]1C(=O)N(C)c2cnc(Nc3ccc(C(=O)N[C@H]4CC[C@H](N5CCN(CC6CC6)CC5)CC4)cc3OC)nc2N1C(C)C [VOLASERTIB] | 87.9 | 138 | – | 75.2
C[C@@H]1O[C@@H](O[C@H]2C[C@@H](O)[C@]3(CO)[C@H]4[C@H](O)C[C@]5(C)[C@@H](C6=CC(=O)OC6)CC[C@]5(O)[C@@H]4CC[C@]3(O)C2)[C@H](O)[C@H](O)[C@H]1O [OUABAIN] | 178 | 280 | 173 | 275
C[C@H]1C[C@H]2[C@@H]3CCC4=CC(=O)C=C[C@]4(C)[C@@]3(F)[C@@H](O)C[C@]2(C)[C@@]1(O)C(=O)CO [BETAMETHASONE] | 0 | 0 | 0 | –
COc1cc(CCc2cc(NC(=O)c3ccc(N4CC(C)NC(C)C4)cc3)n[nH]2)cc(OC)c1 (stereo unspecified) [AZD4547] | 2.86 | 3.53 | 2.67 | 3.59
CC(=O)OC[C@H]1O[C@@H]([S-])[C@H](OC(C)=O)[C@@H](OC(C)=O)[C@@H]1OC(C)=O.CCP(CC)CC.[Au+] [AURANOFIN] | 199 | 223 | 188 | 208
Cn1cnc2c(F)c(Nc3ccc(Br)cc3F)c(C(=O)NOCCO)cc21 [BINIMETINIB] | 0 | 0 | 17.9 | 56.9
O=C(O)CCCc1ccc(N(CCCl)CCCl)cc1 [CHLORAMBUCIL] | 0.922 | 0 | 0.476 | 2.34
O=C(CCCCCCNC(=O)c1cnc(N(c2ccccc2)c2ccccc2)nc1)NO [ROCILINOSTAT] | 43.9 | 94.7 | 20.4 | 76.4
CNC(=O)c1cc(Oc2ccc(NC(=O)Nc3ccc(Cl)c(C(F)(F)F)c3)c(F)c2)ccn1 [REGORAFENIB] | 30.6 | 47.7 | 18.8 | 61.4
